# Reference: US11390604B2 (Hoffmann-La Roche Inc., priority 2019, dated 2022)
# Where a name gives a salt, the structure may show the parent alone.
# Test system: Acinetobacter baumannii ATCC 17961
# Experiment: Antimicrobial susceptibility testing: 90% growth inhibitory concentration (IC90) determination
# Assay type: cell-based
# Settings: ATCC17961, Acinetobacter baumannii ATCC 17961, Iso-Sensitest broth, read-out: ATCC 17961 IC90
# Method: Antimicrobial Susceptibility Testing:
# 90% Growth Inhibitory Concentration (IC90) Determination
# The in vitro antimicrobial activity of the compounds was determined according to the following procedure:
# The assay used a 10-points Iso-Sensitest broth medium to measure quantitatively the in vitro activity of the compounds against Acinetobacter baumannii ATCC 17961.
# Stock compounds in DMSO were serially twofold diluted (e.g. range from 50 to 0.097 μM final concentration) in 384 wells microtiter plates and inoculated with 49 μl the bacterial suspension in Iso-Sensitest medium to have a final cell concentration of ˜5×10^(5) CFU/ml in a final volume/well of 50 ul/well. Microtiter plates were incubated at 35±2° C.
# Bacterial cell growth was determined with the measurement of optical density at X=600 nm each 20 minutes over a time course of 16 h. Growth inhibition was calculated during the logarithmic growth of the bacterial cells with determination of the concentration inhibiting 50% (IC50) and 90% (IC90) of the growth.
# Table 1 provides the 90% growth inhibitory concentrations (IC90) in micromoles per liter of the compounds of present disclosure obtained against the strain Acinetobacter baumannii ATCC 17961.
row,IC90,SMILES
1,123 nM,"Cn1c(-c2cn(C3CC3(F)F)nc2C(F)(F)F)cnc1C(=O)Nc1ccc(C(=O)N[C@H]2[C@@H]3CN(C(=O)N[C@H]4CNC[C@@H]4O)C[C@@H]32)c(Cl)c1 (mixture of isomers) [Example 381, exo-6-(2-chloro-4-(5-(1-(2,2-difluorocyclopropyl)-3-(trifluoromethyl)-1H-pyrazol-4-yl)-1-methyl-1H-imidazole-2-carboxamido)benzamido)-N-((3S,4S)-4-hydroxypyrrolidin-3-yl)-3-azabicyclo[3.1.0]hexane-3-carboxamide formate]"
2,127 nM,"Cn1c(-c2cn(C3CC3(F)F)nc2C(F)(F)F)cnc1C(=O)Nc1ccc(C(=O)N[C@H]2[C@@H]3CN(C(=O)N[C@@H]4CNC[C@H]4O)C[C@@H]32)c(Cl)c1 (mixture of isomers) [Example 382, exo-6-[[2-chloro-4-[[5-[1-(2,2-difluorocyclopropyl)-3-(trifluoromethyl)pyrazol-4-yl]-1-methylimidazole-2-carbonyl]amino]benzoyl]amino]-N-[trans-4-hydroxypyrrolidin-azabicyclo[3.1.0]hexane-3-carboxamide, formate salt]"
3,344 nM,"Cn1c(-c2cn(CC(F)F)nc2C(F)(F)F)cnc1C(=O)Nc1ccc(S(=O)(=O)N2CCN(C(=O)N[C@@H]3CNC[C@H]3O)CC2)cc1 (racemic) [Example 279, rac-4-((4-(5-(1-(2,2-difluoroethyl)-3-(trifluoromethyl)-1H-pyrazol-4-yl)-1-methyl-1H-imidazole-2-carboxamido)phenyl)sulfonyl)-N-((3R,4R)-4-hydroxypyrrolidin-3-yl)piperazine-1-carboxamide formate]"
4,345 nM,"CO[C@H]1CNC[C@@H]1NC(=O)c1ccc(NC(=O)c2ncc(-c3cn(C4CC4(F)F)nc3C(F)(F)F)n2C)cc1Cl (mixture of isomers) [Example 280, N-(3-chloro-4-((trans-4-methoxypyrrolidin-3-yl)carbamoyl)phenyl)-5-(1-(2,2-difluorocyclopropyl)-3-(trifluoromethyl)-1H-pyrazol-4-yl)-1-methyl-1H-imidazole-2-carboxamide formate]"
5,354 nM,"Cn1c(-c2cn(C3CC3(F)F)nc2C(F)(F)F)cnc1C(=O)Nc1ccc(C(=O)N2C[C@H]3CN(C(=O)N[C@H]4CNC[C@@H]4O)C[C@H]3C2)c(Cl)c1 (mixture of isomers) [Example 288, rac-(3aR,6aS)-5-(2-chloro-4-(5-(1-(2,2-difluorocyclopropyl)-3-(trifluoromethyl)-1H-pyrazol-4-yl)-1-methyl-1H-imidazole-2-carboxamido)benzoyl)-N-((3R,4R)-4-hydroxypyrrolidin-3-yl)hexahydropyrrolo[3,4-c]pyrrole-2(1H)-carboxamide formate]"
6,363 nM,"CN(C(=O)c1ccc(NC(=O)c2ncc(-c3cn(C4CC4(F)F)nc3C(F)(F)F)n2C)cc1Cl)C1CCN(C(=O)N[C@H]2C[C@@H](N)C2)CC1 (mixture of isomers) [Example 294, rac-N-((1s,3s)-3-aminocyclobutyl)-4-(2-chloro-4-(5-(1-(2,2-difluorocyclopropyl)-3-(trifluoromethyl)-1H-pyrazol-4-yl)-1-methyl-1H-imidazole-2-carboxamido)-N-methylbenzamido)piperidine-1-carboxamide formate]"
7,367 nM,"Cn1c(-c2cn(C3CC3(F)F)nc2C(F)(F)F)cnc1C(=O)Nc1ccc(C(=O)N2CC3C(C2)C3NC(=O)N[C@H]2CNC[C@@H]2O)c(Cl)c1 (mixture of isomers) [Example 300, rac-N-(3-chloro-4-(6-(3-((3R,4R)-4-hydroxypyrrolidin-3-yl)ureido)-3-azabicyclo[3.1.0]hexane-3-carbonyl)phenyl)-5-(1-(2,2-difluorocyclopropyl)-3-(trifluoromethyl)-1H-pyrazol-4-yl)-1-methyl-1H-imidazole-2-carboxamide formate]"
8,379 nM,"Cn1c(-c2cn(C3CC3(F)F)nc2C(F)(F)F)cnc1C(=O)Nc1ccc(C(=O)NCC2CC3CN(C(=O)N[C@H]4CNC[C@@H]4O)CC3C2)c(Cl)c1 (mixture of isomers) [Example 310, rac-5-((2-chloro-4-(5-(1-(2,2-difluorocyclopropyl)-3-(trifluoromethyl)-1H-pyrazol-4-yl)-1-methyl-1H-imidazole-2-carboxamido)benzamido)methyl)-N-((3R,4R)-4-hydroxypyrrolidin-3-yl)hexahydrocyclopenta[c]pyrrole-2(1H)-carboxamide formate]"
9,420 nM,"Cn1c(-c2cn(C3CC3(F)F)nc2C(F)(F)F)cnc1C(=O)Nc1ccc(C(=O)N2C[C@H]3CNC[C@@H]3C2)c(Cl)c1 (mixture of isomers) [Example 329, rac-N-(3-chloro-4-((3aR,6aR)-octahydropyrrolo[3,4-c]pyrrole-2-carbonyl)phenyl)-5-(1-(2,2-difluorocyclopropyl)-3-(trifluoromethyl)-1H-pyrazol-4-yl)-1-methyl-1H-imidazole-2-carboxamide formate]"
10,422 nM,"CN(CCCCNC(=O)c1ccc(NC(=O)c2ncc(-c3cn(C4CC4(F)F)nc3C(F)(F)F)n2C)cc1Cl)C(=O)N[C@H]1CNC[C@@H]1O (mixture of isomers) [Example 331, rac-N-(3-chloro-4-((4-(3-((3S,4S)-4-hydroxypyrrolidin-3-yl)-1-methylureido)butyl)carbamoyl)phenyl)-5-(1-(2,2-difluorocyclopropyl)-3-(trifluoromethyl)-1H-pyrazol-4-yl)-1-methyl-1H-imidazole-2-carboxamide formate]"

# The remaining lines, values behind:
row,SMILES,IC90
1,"Cn1c(-c2cn(C3CC3(F)F)nc2C(F)(F)F)cnc1C(=O)Nc1ccc(C(=O)N[C@H]2[C@@H]3CN(C(=O)N[C@@H]4CCC[C@@H]4N)C[C@@H]32)c(Cl)c1 (mixture of isomers) [Example 186, cis-N-[(1R,2S)-2-aminocyclopentyl]-6-[[2-chloro-4-[[5-[1-(2,2-difluorocyclopropyl)-3-(trifluoromethyl)pyrazol-4-yl]-1-methylimidazole-2-carbonyl]amino]benzoyl]amino]-3-azabicyclo[3.1.0]hexane-3-carboxamide, formate salt]",150 nM
2,"Cn1c(-c2cn(C3CC3(F)F)nc2C(F)(F)F)cnc1C(=O)Nc1ccc(C(=O)NC2[C@H]3CN(C(=O)N4CC[C@@H](N)C4)C[C@@H]23)c(Cl)c1 (mixture of isomers) [Example 192, N-[4-[[cis-3-[(3R)-3-aminopyrrolidine-1-carbonyl]-3-azabicyclo[3.1.0]hexan-6-yl]carbamoyl]-3-chlorophenyl]-5-[1-(2,2-difluorocyclopropyl)-3-(trifluoromethyl)pyrazol-4-yl]-1-methylimidazole-2-carboxamide, formate salt]",180 nM
3,"CCc1cc(NC(=O)c2ncc(-c3cn(CC#N)nc3C(F)(F)F)n2C)ccc1C(=O)N1CCN(C(=O)N2CC[C@H](C)[C@H](N)C2)CC1 (racemic) [Example 137, 5-[1-(cyanomethyl)-3-(trifluoromethyl)pyrazol-4-yl]-N-[3-ethyl-4-[4-[rac-(3R,4R)-3-amino-4-methylpiperidine-1-carbonyl]piperazine-1-carbonyl]phenyl]-1-methylimidazole-2-carboxamide;formic acid]",845 nM
4,Cn1c(-c2cn(C3CC3(F)F)nc2C(F)(F)F)cnc1C(=O)Nc1ccc(C(=O)NC2[C@H]3CN(C(=O)N[C@H]4CCNC4)C[C@@H]23)c(Cl)c1 (mixture of isomers) [Example 189],167 nM
5,"Cn1c(-c2cn(C3CC3(F)F)nc2C(F)(F)F)cnc1C(=O)Nc1ccc(C(=O)NC2CCN(C(=O)N[C@H]3C[C@@H](N)C3)CC2)c(Cl)c1 (mixture of isomers) [Example 237, rac-N-((1s,3s)-3-aminocyclobutyl)-4-(2-chloro-4-(5-(1-(2,2-difluorocyclopropyl)-3-(trifluoromethyl)-1H-pyrazol-4-yl)-1-methyl-1H-imidazole-2-carboxamido)benzamido)piperi-dine-1-carboxamide formate]",271 nM
6,"Cn1c(-c2cn(C3CC3(F)F)nc2C(F)(F)F)cnc1C(=O)Nc1ccc(C(=O)N2C[C@H]3CNC[C@H]3C2)c(Cl)c1 (mixture of isomers) [Example 271, rac-N-(3-chloro-4-((3aR,6aS)-octahydropyrrolo[3,4-c]pyrrole-2-carbonyl)phenyl)-5-(1-(2,2-difluorocyclopropyl)-3-(trifluoromethyl)-1H-pyrazol-4-yl)-1-methyl-1H-imidazole-2-carboxamide formate]",335 nM
7,"Cn1c(-c2cn(C3CC3(F)F)nc2C(F)(F)F)cnc1C(=O)Nc1ccc(C(=O)NC2C[C@@H]3CC[C@@H](C2)N3)c(Cl)c1 (mixture of isomers) [Example 283, rac-N-(4-(((1R,3s,5S)-8-azabicyclo[3.2.1]octan-3-yl)carbamoyl)-3-chlorophenyl)-5-(1-(2,2-difluorocyclopropyl)-3-(trifluoromethyl)-1H-pyrazol-4-yl)-1-methyl-1H-imidazole-2-carboxamide formate]",348 nM

# Same assay, conditions: Acinetobacter baumannii, ATCC17961, read-out: ATCC 17961 IC90, Acinetobacter baumannii ATCC 17961, Iso-Sensitest broth
row,SMILES,IC90
1,"Cn1c(-c2cn(C3CC3(F)F)nc2C(F)(F)F)cnc1C(=O)Nc1ccc(C(=O)NCC2CCCN(C(=O)N[C@H]3CNC[C@@H]3O)C2)c(Cl)c1 (mixture of isomers) [Example 226, formate]",259 nM
2,"Cn1c(-c2cn(CC3CC3(F)F)nc2C(F)(F)F)cnc1C(=O)Nc1ccc(C(=O)N2CCN(C(=O)N[C@H]3C[C@@H](N)C3)CC2)c(Cl)c1 (mixture of isomers) [Example 254, rac-N-((1s,3s)-3-aminocyclobutyl)-4-(2-chloro-4-(5-(1-((2,2-difluorocyclopropyl)methyl)-3-(trifluoromethyl)-1H-pyrazol-4-yl)-1-methyl-1H-imidazole-2-carboxamido)benzoyl)piperazine-1-carboxamide hydrochloride]",311 nM
